# Entries after “also recorded” stand apart in the source; their conditions may differ.
# Tested on: mouse aortic smooth muscle
# Assay: Mouse aortic smooth muscle contraction in skinned muscle strips with dATP vs. ATP
# Assay type: biochemical
# Source text: dATP has no affect on mouse aortic smooth muscle force development. To begin studying potential systemic effects of elevated dATP, we collaborated with Dr. Frank Brozovich (Mayo Clinic) to determine if dATP affects mouse aortic smooth muscle contraction.
structure (smiles),measurement,setting,value
"Nc1ncnc2c1ncn2[C@H]1C[C@H](O)[C@@H](COP(=O)(O)OP(=O)(O)OP(=O)(O)O)O1 [dATP, 2 deoxy-ATP]",level of myosin light chain phosphorylation,control measurements (data not shown),did not change
same,aortic smooth muscle contraction,dATP vs. ATP as the contractile substrate,did not differ; also recorded: did not alter contraction
